Laboratory results from patent publication US20210093730A1, “BIOMARKERS FOR ANTIBODY-DRUG CONJUGATE MONOTHERAPY OR COMBINATION THERAPY” (Immunomedics, Inc., priority 2019, published 2021).
Read-outs that look alike come from different tables or passages of the source.

Assays:
[1] = system: NCI-N87-S120 human gastric cancer cells; conditions: cells with induced resistance to SN-38; cited from earlier work
[2] = system: MDA-MB-231 human breast cancer cells; conditions: cells with induced resistance to SN-38; cited from earlier work
NCI-N87-S120 xenografts = conditions: in combination with IMMU-132; cited from earlier work
urothelial carcinoma [3] = conditions: docetaxel-alone control arm; cited from earlier work
[4] = system: platinum-resistant urothelial cancer; conditions: cited from earlier work
[5] = system: advanced colorectal cancer; conditions: cited from earlier work
TNBC xenografts = conditions: in combination with sacituzumab govitecan; independent of BRCA1/2 mutation status; cited from earlier work
urothelial carcinoma [6] = conditions: cited from earlier work
SCLC [7] = conditions: 28 patients; cited from earlier work
SCLC [8] = conditions: cited from earlier work
[9] = system: relapsed metastatic ovarian cancer; test: Therapy of relapsed metastatic ovarian cancer with IMMU-130 plus prexasertib (case, Example 7); conditions: one patient
[10] = system: metastatic colorectal cancer; conditions: cited from earlier work
recurrent SCLC = conditions: cited from earlier work

COc1ccc2c3c([nH]c2c1)[C@H](CC(C)C)N1C(=O)[C@H](CCC(=O)OC(C)(C)C)NC(=O)[C@@H]1C3 [Kol43]
effect on toxicity of SN-38 [1]: restored toxicity of SN-38
effect on toxicity of SN-38 [2]: restored toxicity of SN-38

CCN(CC)CC(=O)OC1CCN(c2ccc(/C=C(\C#N)c3ccc(OC)c(OC)c3)s2)CC1.CS(=O)(=O)O [YHO-13351]
median survival of mice (NCI-N87-S120 xenografts): increased median survival
effect on toxicity of SN-38 [1]: restored toxicity of SN-38
effect on toxicity of SN-38 [2]: restored toxicity of SN-38

CC(=O)O[C@@]12CO[C@@H]1C[C@H](O)[C@@]1(C)C(=O)[C@H](O)C3=C(C)[C@@H](OC(=O)[C@H](O)[C@@H](NC(=O)OC(C)(C)C)c4ccccc4)C[C@@](O)([C@@H](OC(=O)c4ccccc4)[C@H]21)C3(C)C [docetaxel]
progression-free survival (urothelial carcinoma [3]): 10.4 weeks
response rate (urothelial carcinoma [3]): 5%

COc1ccc2c3c([nH]c2c1)[C@H](C=C(C)C)N1C(=O)[C@@H]2CCCN2C(=O)[C@@H]1C3 [fumitremorgin C]
effect on toxicity of SN-38 [1]: restored toxicity of SN-38
effect on toxicity of SN-38 [2]: restored toxicity of SN-38

CCc1c2c(nc3ccc(OC(=O)N4CCC(N5CCCCC5)CC4)cc13)-c1cc3c(c(=O)n1C2)COC(=O)[C@]3(O)CC [irinotecan]
overall response rate ([4]; 95% confidence interval 1%-17%): 5%
duration of a complete response ([4]; human, in vivo): 33 months
overall survival ([4]; human, in vivo): 5.4 months
response to irinotecan ([5]; TDP1 IVS12+79 G/G genotype): 64%
response to irinotecan ([5]; TDP1 IVS12+79 T/T genotype): 25%
incidence of grade 3/4 neutropenia ([5]; TOP1 IVS4+61 A/A genotype (small sample size)): 50%
incidence of grade 3/4 neutropenia ([5]; TOP1 IVS4+61 G/G genotype): 8%

O=C(c1cc(Cc2n[nH]c(=O)c3ccccc23)ccc1F)N1CCN(C(=O)C2CC2)CC1 [olaparib]
effect on tumor growth (TNBC xenografts): synergistic inhibition of tumor growth

Nc1nc2[nH]cc(CCc3ccc(C(=O)N[C@@H](CCC(=O)O)C(=O)O)cc3)c2c(=O)[nH]1 [pemetrexed]
objective response rate (urothelial carcinoma [6]; 95% confidence interval 1%-9%): 5%
median progression-free survival (urothelial carcinoma [6]; in vivo): 2.4 months

CNCc1ccc(-c2[nH]c3cc(F)cc4c3c2CCNC4=O)cc1 [rucaparib]
effect on tumor growth (TNBC xenografts): synergistic inhibition of tumor growth

Cn1ncnc1[C@H]1c2n[nH]c(=O)c3cc(F)cc(c23)N[C@@H]1c1ccc(F)cc1 [talazoparib]
effect on tumor growth (TNBC xenografts): synergistic inhibition of tumor growth

CC[C@@]1(O)C(=O)OCc2c1cc1n(c2=O)Cc2cc3c(CN(C)C)c(O)ccc3nc2-1 [topotecan]
PR (SCLC [7]): 11%
median survival (SCLC [7]): 5 months
one-year survival (SCLC [7]): 3.5%
objective response rate (SCLC [8]; chemoresistant frontline patients): 5%
objective response rate (SCLC [8]; chemosensitive patients): 17%
grade >=3 anemia (SCLC [8]; in vivo): 24%
grade >=3 neutropenia (SCLC [8]; in vivo): 69%
grade >=3 thrombocytopenia (SCLC [8]; in vivo): 1%
patients who died from this chemotherapy (SCLC [8]; in vivo): approximately 2%

labetuzumab govitecan
response by RECIST criteria ([9]; IMMU-130 10 mg/kg plus prexasertib 105 mg/m^2): partial response
decrease of the sum of the diameters of the index lesions ([9]; IMMU-130 plus prexasertib): 45%
toxicity ([9]; IMMU-130 plus prexasertib): transient grade 2 neutropenia and some initial diarrhea
patients with a reduction in tumor size and plasma CEA levels ([10]; 72 assessable patients): 38%
patients with partial response ([10]; 72 assessable patients): One
patients with stable disease ([10]; 72 assessable patients): 42 patients
median OS ([10]; human, in vivo): 6.9 months
median PFS ([10]; human, in vivo): 3.6 months

nivolumab: anti-PD1 checkpoint inhibitor antibody
disease-control rate (recurrent SCLC; combination with ipilimumab): 32%
response rate (recurrent SCLC; nivolumab alone): 10%
